From patent US5552405A, “Substituted pyrrolidine derivatives as HIV protease inhibitors” (Bio-Mega/Boehringer Ingelheim Research, Inc., priority 1995, dated 1996) come the findings set out here.

One assay addresses T1, HIV protease (Human immunodeficiency virus type 1 group M subtype B, UniProt P04585).
T1 construct: HIV protease was expressed in E. coli; made in house; host or cells: E. coli
The experiment in a line: Recombinant HIV Protease HPLC Assay. It is filed as biochemical. As to conditions: recombinant HIV protease expressed in E. coli; substrate VSFNFPQITL-NH2; pH 5.5; 37°, 30 min; read-out: IC50, concentration of the test compound which causes a 50% inhibition of the HIV-protease. From the text: The procedure is based on the capacity of the test compound to inhibit enzymatic cleavage by HIV protease of a decapeptide (the substratel having an amino acid sequence which includes a known HIV protease cleavage site of a HIV polyprotein; see H. G. Krausslich et al., Proc. Natl. Acad. Sci. U.S.A., 86, 807 (1989). Details of this assay together with the results obtained for exemplified compounds of formula 1 are described in the examples hereinafter.
Enzyme: HIV protease was expressed in E. coli {construct pBRT1 prt^+, see W. G. Farmerie et al., Science, 236, 305 (1987)}, according to the following protocol: Unless stated otherwise, all solutions are aqueous solutions.
E. coli cells containing the pBRT1 prt^+ plasmid were used to inoculate a seed culture media composed of Luria-Bertani Broth containing 100 μg/mL of ampicillin. Flasks were incubated at 37° under agitation for 17 h. Production flasks containing sterile M9 broth, supplemented with 100 μg/mL of ampicillin, were inoculated at a level of 1% (v/v) using the seed culture described above. Total volume in each production flask was 500 mL in a 2 L Erlenmeyer flask. Flasks were incubated at 37° under agitation until a cell concentration corresponding to an optical density (λ=540 μm) of 0.6 was reached (no dilution). This time span was routinely 3-4 h. Flasks were then supplemented with 5 mM isopropylthiogalactoside (IPTG, Research Organics, Cleveland, Ohio, USA) and incubation was continued until the cell concentration reached an optical density of 0.2 at 16-fold dilution. Flasks were then supplemented with 1 mM phenylmethylsulfonyl fluoride (PMSF) and rapidly chilled to 4°. The bacterial cells were recovered by centrifugation at 4°. The wet pellet was stored at -70°.
All steps below were perfomed at 4° unless otherwise indicated. Thawed cells were mixed with buffer A {50 mM tris(hydroxymethyl)aminoethane HCl (Tris-HCl, pH 7.4); 0.6 mM ethylenediaminetetraacetic acid (EDTA); 0.375M NaCl, 0.2% Nonidet P-40® (BDH Chemicals Ltd., Poole, UK); 1 mM PMSF}, at a ratio of one part cells to nine parts buffer A. Diatomaceous earth (Celite 545® John Manville, Lompoc, Calif. U.S.A.) was added at a ratio of two parts to one part of wet cell weight. The resulting slurry was homogenized at high speed (ca. 20,000 rpm) on a Waring® industrial blender for 8×15 sec. pulses. Cell debris/Celite® was collected by centrifugation and the resulting pellet was extracted with 4.5 parts of buffer A to one part wet solids using the homogenization procedure described above. Supernatants from both homogenization steps were combined and soluble protein was precipitated by the addition of solid (NH4)2 SO4 to yield a final concentration of 75% saturation. This mixture was agitated for 60 min and the precipitate was recovered by centrifugation. The resulting pellet was suspended in buffer B {50 mM Tris-HCl, pH 8; 30 mM NaCl; 1 mM DL-dithiothreitol (DTT); 1 mM EDTA; mM PMSF; 10% glycerol}, and dialyzed for 18 h against the same buffer.
An aliquot of the dialyzed extract containing 150 mg of the protein was loaded onto a Sephadex A25® anion exchange column (Pharmacia, Uppsala, Sweden) with bed dimensions of 70 cm length and 2.5 cm diameter. The sample was eluted isocratically with buffer B at a linear flow rate of 10 cm/h. Fractions containing HIV protease activity (see below for assay description) were combined, and soluble protein was precipitated by the addition of saturated aqueous (NH4)2 SO4 to yield a total (NH4)2 SO4 concentration of 85% saturation. Precipitated protein was removed by centrifugation and the resulting pellet was dissolved in buffer C {50 mM 2-(4-morpholino)ethanesulfonic acid (MES), pH 5.5; 150 mM NaCl; 1 mM DTT; 1 mM EDTA; 10% glycerol}. This preparation was dialyzed for 18 h against buffer C, and then frozen at -70°. All crude extracts were purified by chromatography in aliquots containing 150 mg of protein in the same manner as described above. […]

Assay [1] has as its system HIV (H9/HTLV-IIIB) in HTLV-I transformed C8166 cells. The experiment in a line: plaque assay, inhibition of HIV (H9/HTLV-IIIB) syncytia formation in C8166 cells. It is filed as cell-based. As to conditions: Human immunodeficiency virus 1, fifty times TCID50, 37°, 72 h, read-out: EC50, concentration of the test compound which causes a 50% inhibition of syncytia formation. From the text: Typical of such procedures are those described by S. Harada and N. Yamamoto, Jpn. J. Cancer Res. (Gann), 76, 432 (1985), and S. Harada et al., Science, 229, 563 (1985). An assay based on the latter procedures is described in the examples hereinafter.
The following protocol, used for screening antiviral effects of the compounds of formula 1, is adapted from a plaque assay utilizing HTLV-I transformed cells, previously reported by Harada et al., supra. HTLV-I transformed cells are used because of the rapidity with which HIV will replicate in the cells.
1. The test compound is dissolved in dimethylsulfoxide to a concentration of 5 mg/mL. The resultant solution can be stored at 4° until use.
2. The resultant solution is diluted in RPMI 1640 (Gibco Laboratories, St. Lawrence, Mass., USA) to four times (4×) the final concentration which is to be tested. Once diluted in RPMI 1640, the solution is used in the cell culture assay within 4 h.
3. The 4×solution (50 μL) is added to triplicate wells of a 96 well flat bottomed microtiter plate. RPMI (50 μL) also is added to control wells.
4. C8166 cells (5×10^4) in […] of HEPES-buffered RPMI 1640 (pH=7.2), 10% heat inactivated fetal calf serum (FCS), […] gentamicin (complete media) are added to all wells.
5. Fifty times TCID50 of H9/HTLV-IIIB stock (stored in liquid nitrogen as cell culture supernatant in 50% FCS) in 100 μL of complete media is added to all wells. Infectious titer of virus stocks are as previously determined by end point dilution on C8166 cells. Titer of stocks are stable for 6-12 months when stored at -193°.
6. Microtiter plates are then placed on level shelves of a 37°, 5% CO2 humidified incubator for 72 h.
7. Plates are then removed and centers of syncytia are counted in each well by low power phase contrast light microscopy. […] Control wells should have between 25 and 75 centers of syncytia per well.
8. Percent inhibition of syncytia formation is calculated by the formula: [formula]
The concentration of the test compound which causes a 50% inhibition of syncytia formation, i.e. the EC50, is determined by using the technique of serial dilution of the working solution at step 3 and graphically plotting the observed percent inhibition of syncytia formation against the various concentrations of the test compound.

Regarding `CC(C)[C@H](NC(=O)OCc1ccccc1)C(=O)N[C@@H](Cc1ccccc1)[C@H](O)CN1C[C@H](OCc2ccccc2)C[C@H]1C(=O)NC(C)(C)C` [Entry 2], the IC50 at HIV protease stood at 0.016 µM.

Turning to `CC(C)[C@H](NC(=O)c1ccc2ccccc2n1)C(=O)N[C@@H](Cc1ccccc1)[C@H](O)CN1C[C@H](Sc2ncccn2)C[C@H]1C(=O)NC(C)(C)C` [Entry 10], on HIV protease, the IC50 came to 0.0047 µM.

With `Cc1cccc(C)c1OCC(=O)N[C@@H](Cc1ccccc1)[C@H](O)CN1C[C@H](Sc2ncccn2)C[C@H]1C(=O)NC(C)(C)C` [Entry 13], the IC50 at HIV protease came to 0.0046 µM.

Regarding `Cc1cccc(C)c1OCC(=O)N[C@@H](Cc1ccccc1)[C@H](O)CN1C[C@H](SCc2cccnc2)C[C@H]1C(=O)NC(C)(C)C` [Entry 14], the IC50 at HIV protease was 0.043 µM.

With `CC(C)(C)NC(=O)[C@@H]1C[C@@H](OCc2ccccc2)CN1C[C@@H](O)[C@H](Cc1ccccc1)NC(=O)[C@H](CC(N)=O)NC(=O)OCc1ccccc1` [Table I Entry 3, 4(R)-Benzyloxy-1-{3(S)-{{N-(benzyloxycarbonyl)asparaginyl}amino}-2(R)-hydroxy-4-phenylbutyl}-N-tert-butylpyrrolidine-2(S)-carboxamide], the EC50 in assay [1] came out at 0.6 µM. Further, the IC50 on HIV protease is 0.039 µM.

`CC(C)(C)NC(=O)[C@@H]1C[C@H](OCc2ccccc2)CN1C[C@@H](O)[C@H](Cc1ccccc1)NC(=O)[C@H](CC(N)=O)NC(=O)OCc1ccccc1` [Table I Entry 4, 4(S)-Benzyloxy-1-{3(S)-{{N-(benzyloxycarbonyl)asparaginyl}amino}-2(R)-hydroxy-4-phenylbutyl}-N-tert-butylpyrrolidine-2(S)-carboxamide]: the IC50 at HIV protease came to 0.3 µM.

`CC(C)CO[C@H]1C[C@@H](C(=O)NC(C)(C)C)N(C[C@@H](O)[C@H](Cc2ccccc2)NC(=O)[C@@H](NC(=O)OCc2ccccc2)C(C)C)C1` [Table I Entry 5, 1-{3(S)-{{N-(benzyloxycarbonyl)valyl}amino}-2(R)-hydroxy-4-phenylbutyl}-N-tert-butyl-4(S)-(2-methylpropyloxy)pyrrolidine-2(S)-carboxamide]: at HIV protease, the IC50 was found to be 0.745 µM.

With `CC(C)CO[C@@H]1C[C@@H](C(=O)NC(C)(C)C)N(C[C@@H](O)[C@H](Cc2ccccc2)NC(=O)[C@@H](NC(=O)OCc2ccccc2)C(C)C)C1` [Table I Entry 6, 1-{3(S)-{{N-(benzyloxycarbonyl)valyl}amino}-2(R)-hydroxy-4-phenylbutyl}-N-tert-butyl-4(R)-(2-methylpropyloxy)pyrrolidine-2(S)-carboxamide], in assay [1], the EC50 amounted to 3 µM. Further, on HIV protease, the IC50 was 0.18 µM.

With `CC(C)[C@H](NC(=O)OCc1ccccc1)C(=O)N[C@@H](Cc1ccccc1)[C@H](O)CN1C[C@H](OCc2ccccc2)C[C@H]1C(=O)NC1CC1` [Table I Entry 7, 4(R)-Benzyloxy-1-{3(S)-{{N-(benzyloxycarbonyl)valyl}amino}-2(R)-hydroxy-4-phenylbutyl}-N-cyclopropylpyrrolidine-2(S)-carboxamide], the EC50 in assay [1] turned out to be 0.9 µM. Further, the IC50 on HIV protease was 0.1 µM.

Turning to `CC(C)[C@H](NC(=O)c1ccc2ccccc2n1)C(=O)N[C@@H](Cc1ccccc1)[C@H](O)CN1C[C@H](Sc2ncccn2)C[C@H]1C(=O)NC(C)(C)C` [Table I Entry 10, N-tert-butyl-1-{2(R)-hydroxy-4-phenyl-3(S)-{{N-(2-quinolinylcarbonyl)valyl}amino}butyl}-4(R)-(2-pyrimidinylthio)pyrrolidine-2(S)-carboxamide], in assay [1], the EC50 amounted to 0.25 µM.

In the case of `Cc1cccc(C)c1OCC(=O)N[C@@H](Cc1ccccc1)[C@H](O)CN1C[C@H](Sc2ncccn2)C[C@H]1C(=O)NC(C)(C)C` [Table I Entry 13, N-tert-butyl-1-{3(S)-{{(2,6-dimethylphenoxy)acetyl}amino}-2(R)-hydroxy-4-phenylbutyl}-4(R)-(2-pyrimidinylthio)pyrrolidine-2(S)-carboxamide], in assay [1], the EC50 is 0.25 µM.
